# From patent US7547691B2, “[4-(Benzo[B]thiophen-2-yl) Pyrimidin-2-yl]-amine derivatives as IKK-beta inhibitors for the treatment of cancer and inflammatory diseases” (Eli Lilly and Company, priority 2005, dated 2009)
# Counter-ions that a name gives are not always drawn.
# Key:
# A2780 cells = assay: Cell Viability Test, A2780; assay type: cell-based; conditions: A2780 (human ovarian carcinoma); 1 ng/mL TNFα, 0.5% DMSO, 48 hours; read-out: Cell Viability Inhibition IC50
# Experimental: (§1) RPMI 8226 cells (ATCC #CCL-155; human multiple myeloma cell line) are grown in RPMI 1640 medium (Gibco #11875-093) supplemented with 10% FBS (fetal bovine serum, Gibco #10082-147), 10 mM HEPES (Gibco #15630-080), 1 mM sodium pyruvate (Gibco #11360-070), and 4.5 mg/mL glucose. HCT116 cells (ATCC #CCL-247; human colon cancer cell line) are grown in McCoy's 5A modified medium (Gibco #16600-082) supplemented with 10% FBS (Gibco #10082-147). H460 cells (ATCC #HTB-177; human non-small cell lung cancer line) are grown in RPMI 1640 (Gibco #11875-093) supplemented with 10% FBS (Gibco #10082-147). […]
# (§2) For compound testing, various cancer cells are seeded at 5,000 cells/well in 100 μl corresponding media specified above for each cell line in 96-well plates one day prior to treatment. […] Cell death in each well is determined by the addition of 15 μL of the One Solution Reagent (The CellTiter 96® AQueous One Solution Reagent, Promega #G3580). After 1-2 hours of incubation at 37° C., optical densities at 490 nm are measured with a microplate reader (Molecular Devices SpectraMax). Inhibition of cell viability is determined by comparison to the control cells treated in the absence of a test compound.
# RPMI 8226 cells = assay: Cell Viability Test, RPMI-8226; assay type: cell-based; conditions: RPMI-8226 (human multiple myeloma cell line); 1 ng/mL TNFα, 0.5% DMSO, 48 hours; read-out: Cell Viability Inhibition IC50
# Experimental: as §1, §2
# U87MG cells = assay: Cell Viability Test, U87MG; assay type: cell-based; conditions: U-87 MG; U87MG (human glioblastoma cell line); 1 ng/mL TNFα, 0.5% DMSO, 48 hours; read-out: Cell Viability Inhibition IC50
# Experimental: as §1, §2
# HCT116 cells = assay: Cell Viability Test, HCT116; assay type: cell-based; conditions: HCT-116; HCT116 (human colon cancer cell line); 1 ng/mL TNFα, 0.5% DMSO, 48 hours; read-out: Cell Viability Inhibition IC50
# Experimental: as §1, §2
# IKKbeta = target: T1, IKKbeta (Homo sapiens, UniProt O14920); assay: IKK-beta Kinase Assay; assay type: biochemical; conditions: purified IKKβ 4 nM, 20 μM IKB peptide, 10 μM ATP, 90 minutes; absolute IC50; read-out: Enzyme Inhibition IC50
# T1 sequence (O14920 1-756): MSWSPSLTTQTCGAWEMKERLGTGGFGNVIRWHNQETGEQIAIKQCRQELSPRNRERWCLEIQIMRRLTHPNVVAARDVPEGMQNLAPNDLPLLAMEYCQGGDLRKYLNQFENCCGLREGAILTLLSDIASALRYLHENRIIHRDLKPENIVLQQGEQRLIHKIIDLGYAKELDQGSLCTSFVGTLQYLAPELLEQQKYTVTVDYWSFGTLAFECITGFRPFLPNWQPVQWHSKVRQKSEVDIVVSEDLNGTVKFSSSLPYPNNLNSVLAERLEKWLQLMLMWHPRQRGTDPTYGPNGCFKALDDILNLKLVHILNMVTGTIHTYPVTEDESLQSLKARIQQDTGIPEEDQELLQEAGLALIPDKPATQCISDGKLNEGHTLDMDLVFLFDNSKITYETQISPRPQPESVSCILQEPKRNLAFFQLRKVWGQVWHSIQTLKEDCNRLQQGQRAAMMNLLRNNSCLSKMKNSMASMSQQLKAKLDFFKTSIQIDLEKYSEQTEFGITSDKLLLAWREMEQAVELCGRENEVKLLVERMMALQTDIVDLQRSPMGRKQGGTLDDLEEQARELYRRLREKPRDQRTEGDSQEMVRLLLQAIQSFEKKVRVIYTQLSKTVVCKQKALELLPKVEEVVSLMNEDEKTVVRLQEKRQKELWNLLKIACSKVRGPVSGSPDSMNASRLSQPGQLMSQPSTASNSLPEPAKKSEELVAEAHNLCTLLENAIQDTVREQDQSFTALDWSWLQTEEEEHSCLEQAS
# Experimental: The kinase activity of purified IKKβ is measured in vitro using a synthetic IKB peptide fragment (-[…]-) derived from IKB protein as a substrate. All reactions (30 μL) are started by the addition of the IKKb enzyme (final concentration: 4 nM) and then incubated at room temperature for 90 minutes in the reaction mix containing 20 μM IKB peptide, 10 μM ATP, 5 mM MgCl2, 50 mM Tris-HCl pH 7.5, 3 mM DTT, 4% DMSO, 1 mM Sodium Orthovandate, 0.5 mM β-glycerophosphate, 0.01% Triton X-100, 4 μCi γ-^33p-ATP/reaction. Reactions are terminated by addition of 30 μL 10% phosphoric acid, and the terminated reaction mix is filtered through a phosphocellulose membrane to remove unused γ-^33P-ATP. After four washes with 0.5% phosphoric acid, radio-labeled products bound to the filter are counted using a microbeta counter. All exemplified compounds are initially tested at 10 concentrations (20 μM down to 1 nM) using a 1:3 serial dilution scheme on the Beckman Tecan serial diluter. Calculation is done using a software package from IDBS (Activity Base) where an absolute IC50 value (non-linear regression) is calculated. Example 20 is specifically detailed below.
# H460 cells = assay: Cell Viability Test, H460; assay type: cell-based; conditions: NCI-H460; H460 (human non-small cell lung cancer line); 1 ng/mL TNFα, 0.5% DMSO, 0.5 μg/mL cycloheximide, 48 hours; read-out: Cell Viability Inhibition IC50
# Experimental: as §1, §2
smiles,measurement,setting,value
"CN1CCN(CCCNc2ncc(Cl)c(-c3cc4c(C(=O)NC5CC5)cccc4s3)n2)CC1 [Example 20, 2-{5-Chloro-2-[3-(4-methylpiperazin-1-yl)-propylamino]-pyrimidin-4-yl}-benzo[b]thiophene-4-carboxylic acid cyclopropylamide tri-hydrochloride]",IC50,A2780 cells,11.7 µM
same,IC50,RPMI 8226 cells,2.2 µM
same,IC50,U87MG cells,22.3 µM
same,IC50,HCT116 cells,19.2 µM
same,IC50,IKKbeta,0.046 µM
same,IC50,H460 cells,9 µM
